A word on the pIC50: it is the negative decadic logarithm of the IC50, by convention in mol/L. Lower therefore signals a high IC50.

Structures are written as SMILES. pIC50: −log10 of the molar value.

For this assay, the target named is T1, hrCXCR2 (Homo sapiens, UniProt P25025).
T1 construct: expressed in transfected cells; host or cells: HEK 293 cells (ECACC No. 85120602), membranes of the highest expressing clone
T1 sequence (P25025 1-360): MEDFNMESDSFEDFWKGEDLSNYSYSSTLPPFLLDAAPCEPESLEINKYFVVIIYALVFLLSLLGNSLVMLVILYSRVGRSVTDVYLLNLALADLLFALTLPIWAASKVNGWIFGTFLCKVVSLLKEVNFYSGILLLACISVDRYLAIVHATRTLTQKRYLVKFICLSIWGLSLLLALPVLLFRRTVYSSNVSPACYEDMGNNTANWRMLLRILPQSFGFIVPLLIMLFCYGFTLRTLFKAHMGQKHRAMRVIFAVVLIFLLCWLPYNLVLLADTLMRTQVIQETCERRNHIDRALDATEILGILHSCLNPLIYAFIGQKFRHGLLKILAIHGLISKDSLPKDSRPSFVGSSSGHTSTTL
The assay is described as follows: Ligand binding assay ([125I]IL-8 binding to hrCXCR2 membranes). As to conditions: ~50 pM [125I]IL-8, membranes of HEK 293 cells expressing hrCXCR2, 1.5 hours at room temperature.

Turning to `Cc1cccc(CSc2nc(NC(C)(C)CO)cc(NS(C)(=O)=O)n2)c1F` [Example 116, N-{2-[(2-Fluoro-3-methylbenzyl)thio]-6-[(2-hydroxy-1,1-dimethylethyl)amino]-pyrimidin-4-yl}methanesulfonamide], the pIC50 was 6.80.

These data come from patent US8106063B2, “Pyrimidyl sulphone amide derivatives as chemokine receptor modulators” (AstraZeneca AB, priority 2002, dated 2012).
